Drawing on US9826734B2, “Etherified lactate esters, method for the production thereof and use thereof for enhancing the effect of plant protecting agents” (Clariant International Ltd., priority 2011, dated 2017), this text covers Percentage foam volume, Static surface tension and Dynamic surface tension for 11 substances.

Holding throughout (format): physicochemical
The nature of data set [1]: Foam behavior, foam test of CIPAC Method MT47. As to conditions: 3 g/l, CIPAC D water (342 ppm). The source says:
The important properties of interface-active substances include the foam behavior, particularly in aqueous systems. Virtually all surfactants foam, and the time to collapse of the foam has to be shortened in the case of critical (highly foaming) surfactants through addition of defoamers to formulation or to aqueous use preparation. The foam behavior of certain of the substances of the invention was characterized, using aqueous solutions at a concentration of 3 g/l, by the foam test of CIPAC Method MT47.

Data set [2] is described as follows: Static surface tension in aqueous systems, Pending Drop Method (DSA10 Goniometer). As to conditions: room temperature (20° C.).
The nature of data set [3]: Dynamic surface tension, bubble pressure method (BP2100 tensiometer). As to conditions: surface age 200 milliseconds. As to the method: The dynamic surface tension was determined via the bubble pressure method (BP2100, tensiometer, Krüss). With a time span relevant for the spray application of agrochemicals in aqueous dilution (referred to as the surface age in the bubble pressure method) of 200 milliseconds, the value of the dynamic surface tension in [mN/m] correlates with the adherence on difficult-to-wet plants such as barley (cereal). A value of 50 mN/m (at 20-21° C.) produces, relative to water (72.8 mN/m), an improvement in the adherence from “zero adherence” to about 50% (Baur P, Pontzen R 2007. Basic features of plant surface wettability and deposit formation and the impact of adjuvants. In: R E Gaskin ed. Proceeding of the 8th International Symposium on Adjuvants for Agrochemicals. Publisher: International Society for Agrochemical Adjuvants (ISAA), Columbus, Ohio, USA). […] The etherified lactate esters are therefore outstandingly suitable for promoting the accommodation of agrochemicals by cereals (with maize, rice, millet), banana, cabbage/oil seed rape, soybean, and other difficult-to-wet crop plants and weed plants. The positive wetting and sticking effects also apply, of course, for other organisms and artificial surfaces and/or technical applications, for the purpose, for instance, of achieving thin coatings on, or cleaning, surfaces.

Turning to 2-ethylhexyl lactate 5EO, the Percentage foam volume was determined as 50% in data set [1] (10 s), 40% in data set [1] (60 s), 20% in data set [1] (3 min) and 10% in data set [1] (12 min). Besides, the results for the Static surface tension in data set [2] (0.3 g/l in water) and in data set [2] (3 g/l in water) were 48.65 mN/m and 32.61 mN/m, respectively. For the same substance, the Dynamic surface tension in data set [3] (0.3 g/l in water) worked out at 54.4 mN/m; in data set [3] (3 g/l in water), 35.3 mN/m.
Regarding 2-ethylhexyl lactate 2PO/10EO, the Percentage foam volume is on record as 50% in data set [1] (10 s), 10% in data set [1] (60 s), 0% in data set [1] (3 min) and 0% in data set [1] (12 min). The Static surface tension amounted to 47.43 mN/m in data set [2] (0.3 g/l in water) and 36.0 mN/m in data set [2] (3 g/l in water). Moreover, the Dynamic surface tension in data set [3] (0.3 g/l in water) was 54.2 mN/m; in data set [3] (3 g/l in water), 37.4 mN/m.
Consider Lauryl lactate 8EO/2PO, for which the figures for the Static surface tension in data set [2] (0.3 g/l in water) and in data set [2] (3 g/l in water) were 30.76 mN/m and 30.71 mN/m, respectively. Also, the Dynamic surface tension in data set [3] (0.3 g/l in water) is recorded as 54.3 mN/m; in data set [3] (3 g/l in water), 37.7 mN/m.
For the substance 2-ethylhexyl lactate 15EO, the Percentage foam volume in data set [1] (10 s), in data set [1] (60 s), in data set [1] (3 min) and in data set [1] (12 min) was 0% each time. Also, the Static surface tension in data set [2] (0.3 g/l in water) amounted to 54.33 mN/m; in data set [2] (3 g/l in water), 42.23 mN/m. The Dynamic surface tension worked out at 58.6 mN/m in data set [3] (0.3 g/l in water) and 48.1 mN/m in data set [3] (3 g/l in water).
As to 2-ethylhexyl lactate 2PO/5EO, the Percentage foam volume in data set [1] (10 s) is listed as 25%; in data set [1] (60 s) it was 10%; in data set [1] (3 min), 10%; in data set [1] (12 min) it was 10%. For the same substance, the Static surface tension in data set [2] (0.3 g/l in water) amounted to 43.35 mN/m; in data set [2] (3 g/l in water) it was 28.48 mN/m. Also, the Dynamic surface tension in data set [3] (0.3 g/l in water) amounted to 50.7 mN/m; in data set [3] (3 g/l in water), 29.6 mN/m.
Turning to Lauryl lactate 5EO/2PO, the Static surface tension in data set [2] (0.3 g/l in water) turned out to be 31.63 mN/m; in data set [2] (3 g/l in water), 31.34 mN/m. In addition, the Dynamic surface tension in data set [3] (0.3 g/l in water) is listed as 51.9 mN/m; in data set [3] (3 g/l in water), 37.4 mN/m.
The like results for Lauryl lactate 5EO/5PO were, in that order, 31.65 mN/m, 30.14 mN/m, 52.7 mN/m and 36.5 mN/m.
2-ethylhexyl lactate 2EO: the Percentage foam volume in data set [1] (10 s), in data set [1] (60 s), in data set [1] (3 min) and in data set [1] (12 min) was 5% throughout. The results for the Static surface tension in data set [2] (0.3 g/l in water) and in data set [2] (3 g/l in water) were 45.34 mN/m and 28.19 mN/m, respectively. For the same substance, the Dynamic surface tension in data set [3] (0.3 g/l in water) is recorded as 50.9 mN/m; in data set [3] (3 g/l in water), 26.8 mN/m.
As to Lauryl lactate 8EO/5PO, the Static surface tension is given as 31.38 mN/m in data set [2] (0.3 g/l in water) and 31.51 mN/m in data set [2] (3 g/l in water). Moreover, the Dynamic surface tension in data set [3] (0.3 g/l in water) worked out at 50.9 mN/m; in data set [3] (3 g/l in water), 36.2 mN/m.
Consider 2-ethylhexyl lactate 2PO/2EO, for which the Percentage foam volume in data set [1] (10 s) turned out to be 2%; in data set [1] (60 s) it was 2%; in data set [1] (3 min), 0%; in data set [1] (12 min), 0%. In addition, the Static surface tension amounted to 40.40 mN/m in data set [2] (0.3 g/l in water) and 29.47 mN/m in data set [2] (3 g/l in water). The Dynamic surface tension in data set [3] (0.3 g/l in water) is reported as 47.8 mN/m; in data set [3] (3 g/l in water) it was 30.7 mN/m.
As for 2-ethylhexyl lactate 10EO, the Percentage foam volume is listed as 10% in data set [1] (10 s), 5% in data set [1] (60 s), 5% in data set [1] (3 min) and 0% in data set [1] (12 min). Also, the Static surface tension in data set [2] (0.3 g/l in water) was determined as 52.99 mN/m; in data set [2] (3 g/l in water) it was 35.18 mN/m. For the same substance, the Dynamic surface tension in data set [3] (0.3 g/l in water) worked out at 56.6 mN/m; in data set [3] (3 g/l in water), 46.6 mN/m.
